Assay results as given in ChEMBL document CHEMBL3272022, “Analogs of luteinizing hormone-releasing hormone with increased biological activity produced by D-amino acid substitutions in position 6” (1976).

Columns and labels:
[1] = tested on: Rattus norvegicus; experiment: Induction of FSH release in immature male rat at 100 ng, sc measured after 15 mins to 6 hrs post dose by RIA relative to LH-RH
[2] = tested on: Rattus norvegicus; experiment: Induction of luteinizing hormone release in immature male rat at 100 ng, sc measured after 15 mins to 6 hrs post dose by RIA relative to LH-RH
[3] = tested on: Rattus norvegicus; experiment: Induction of luteinizing hormone release in ovariectomized estrogen/progesterone-treated rat at 10 ng, sc measured at 30 mins post dose by RIA (reference value: 5.3 +/- 1.5 ng/ml); type: functional
[4] = tested on: Rattus norvegicus; experiment: Induction of luteinizing hormone release in ovariectomized estrogen/progesterone-treated rat at 50 ng, sc measured at 30 mins post dose by RIA (reference value: 5.3 +/- 1.5 ng/ml); type: functional
[5] = tested on: Rattus norvegicus; experiment: Induction of luteinizing hormone release in ovariectomized estrogen/progesterone-treated rat at 10 ng, sc measured at 60 mins post dose by RIA (reference value: 6.0+/- 0.4 ng/ml); type: functional
[6] = tested on: Rattus norvegicus; experiment: Induction of luteinizing hormone release in ovariectomized estrogen/progesterone-treated rat at 50 ng, sc measured at 60 mins post dose by RIA (reference value: 6.0+/- 0.4 ng/ml); type: functional
[7] = tested on: Rattus norvegicus; experiment: Induction of luteinizing hormone release in ovariectomized estrogen/progesterone-treated rat at 100 ng, sc measured after 30 mins post dose by RIA relative to LH-RH; type: functional
[8] = tested on: Rattus norvegicus; experiment: Induction of luteinizing hormone release in ovariectomized estrogen/progesterone-treated rat at 1 ng, sc measured at 30 mins post dose by RIA (reference value: 5.3 +/- 1.5 ng/ml); type: functional
[9] = tested on: Rattus norvegicus; experiment: Induction of luteinizing hormone release in ovariectomized estrogen/progesterone-treated rat at 5 ng, sc measured at 30 mins post dose by RIA (reference value: 5.3 +/- 1.5 ng/ml); type: functional
[10] = tested on: Rattus norvegicus; experiment: Induction of luteinizing hormone release in ovariectomized estrogen/progesterone-treated rat at 1 ng, sc measured at 60 mins post dose by RIA (reference value: 6.0+/- 0.4 ng/ml); type: functional
[11] = tested on: Rattus norvegicus; experiment: Induction of luteinizing hormone release in ovariectomized estrogen/progesterone-treated rat at 5 ng, sc measured at 60 mins post dose by RIA (reference value: 6.0+/- 0.4 ng/ml); type: functional

Compound	Ratio [1]	Ratio [2]	also measured
CC(C)C[C@H](NC(=O)[C@@H](Cc1ccccc1)NC(=O)[C@H](Cc1ccc(O)cc1)NC(=O)[C@H](CO)NC(=O)[C@H](Cc1c[nH]c2ccccc12)NC(=O)[C@H](Cc1cnc[nH]1)NC(=O)[C@@H]1CCC(=O)N1)C(=O)N[C@@H](CCCNC(=N)N)C(=O)N1CCC[C@H]1C(=O)NCC(N)=O	20	10	
CC(C)C[C@H](NC(=O)[C@@H](C)NC(=O)[C@H](Cc1ccc(O)cc1)NC(=O)[C@H](CO)NC(=O)[C@H](Cc1c[nH]c2ccccc12)NC(=O)[C@H](Cc1cnc[nH]1)NC(=O)[C@@H]1CCC(=O)N1)C(=O)N[C@@H](CCCNC(=N)N)C(=O)N1CCC[C@H]1C(=O)NCC(N)=O	13	7	
CC(C)C[C@H](NC(=O)[C@@H](CCC(=O)O)NC(=O)[C@H](Cc1ccc(O)cc1)NC(=O)[C@H](CO)NC(=O)[C@H](Cc1c[nH]c2ccccc12)NC(=O)[C@H](Cc1cnc[nH]1)NC(=O)[C@@H]1CCC(=O)N1)C(=O)N[C@@H](CCCNC(=N)N)C(=O)N1CCC[C@H]1C(=O)NCC(N)=O	1.5	1.8	
CC(C)C[C@H](NC(=O)[C@@H](C)N(C)C(=O)[C@H](Cc1ccc(O)cc1)NC(=O)[C@H](CO)NC(=O)[C@H](Cc1c[nH]c2ccccc12)NC(=O)[C@H](Cc1cnc[nH]1)NC(=O)[C@@H]1CCC(=O)N1)C(=O)N[C@@H](CCCNC(=N)N)C(=O)N1CCC[C@H]1C(=O)NCC(N)=O			Activity [3]: 22.9 ng/mL; Activity [4]: 47.8 ng/mL; Activity [5]: 8.9 ng/mL; Activity [6]: 18.6 ng/mL; Ratio [7]: 0.1
CCNC(=O)[C@@H]1CCCN1C(=O)[C@H](CCCNC(=N)N)NC(=O)[C@H](CC(C)C)NC(=O)[C@@H](Cc1ccccc1)NC(=O)[C@H](Cc1ccc(O)cc1)NC(=O)[C@H](CO)NC(=O)[C@H](Cc1c[nH]c2ccccc12)NC(=O)[C@H](Cc1cnc[nH]1)NC(=O)[C@@H]1CCC(=O)N1	7	8	
CCNC(=O)[C@@H]1CCCN1C(=O)[C@H](CCCNC(=N)N)NC(=O)[C@H](CC(C)C)NC(=O)[C@@H](Cc1c[nH]c2ccccc12)NC(=O)[C@H](Cc1ccc(O)cc1)NC(=O)[C@H](CO)NC(=O)[C@H](Cc1c[nH]c2ccccc12)NC(=O)[C@H](Cc1c[nH]cn1)NC(=O)[C@@H]1CCC(=O)N1 [DESLORELIN]	6	7	
CC(C)C[C@H](NC(=O)CNC(=O)[C@H](Cc1ccc(O)cc1)NC(=O)[C@H](CO)NC(=O)[C@H](Cc1c[nH]c2ccccc12)NC(=O)[C@H](Cc1cnc[nH]1)NC(=O)[C@@H]1CCC(=O)N1)C(=O)N[C@@H](CCCNC(=N)N)C(=O)N1CCC[C@H]1C(=O)NCC(N)=O [GONADORELIN]			Activity [8]: 24.5 ng/mL; Activity [9]: 47 ng/mL; Activity [10]: 9.6 ng/mL; Activity [11]: 15.4 ng/mL
CCNC(=O)[C@@H]1CCCN1C(=O)[C@H](CCCNC(=N)N)NC(=O)[C@H](CC(C)C)NC(=O)[C@@H](CC(C)C)NC(=O)[C@H](Cc1ccc(O)cc1)NC(=O)[C@H](CO)NC(=O)[C@H](Cc1c[nH]c2ccccc12)NC(=O)[C@H](Cc1c[nH]cn1)NC(=O)[C@@H]1CCC(=O)N1 [LEUPROLIDE]	11	15	
CC(C)C[C@H](NC(=O)[C@@H](Cc1c[nH]c2ccccc12)NC(=O)[C@H](Cc1ccc(O)cc1)NC(=O)[C@H](CO)NC(=O)[C@H](Cc1c[nH]c2ccccc12)NC(=O)[C@H](Cc1c[nH]cn1)NC(=O)[C@@H]1CCC(=O)N1)C(=O)N[C@@H](CCCNC(=N)N)C(=O)N1CCC[C@H]1C(=O)NCC(N)=O [TRIPTORELIN]	21	13	
